{"source": "patent US4448763A", "about": "“Alteration of gallium biodistribution using indium complexes for enhanced early imaging” (priority 1980, dated 1984)", "key": {"[1]": {"test": "Imaging of 67Ga distribution in non-tumored rats, clearing agent six hours post dosing", "assay_type": "in vivo, male Sprague Dawley rats", "from_the_text": "Initial studies used non-tumored male Sprague Dawley rats weighing between 250 and 300 grams. […] In all imaging studies, the animals were anesthetized by intraperitoneal injection of urethane (1 gm/Kg), and the left external jugular vein cannulated as a dosing site. The animals were then positioned under the detection of the γ-camera (Union Carbide; CLEON 720 Large Field Gamma Camera coupled with a CLEON 110 Image Processor) and images were obtained periodically."}, "[2]": {"test": "Blood clearance of 67Ga (external blood loop), clearing agent given six hours after radiopharmaceutical", "assay_type": "in vivo, male Sprague Dawley rats", "set-up": "% Increase in Blood Activity / Net Decrease in blood activity / % Decrease in Blood Activity: concentration or dose not given beside the values", "conditions": "for % Decrease in Blood Activity: 67Ga blood activity, clearing agent six hours after injection of radiopharmaceutical; for Net Decrease in blood activity / % Increase in Blood Activity / change in blood activity (in words): clearing agent six hours after radiopharmaceutical; for % Increase in Blood Activity: rise following the initial drop"}, "[3]": {"test": "Blood clearance of 67Ga (external blood loop), clearing agent given two hours after radiopharmaceutical", "assay_type": "in vivo, male Sprague Dawley rats", "procedure": "Relative tissue concentrations are monitored by external imaging.\nFor blood clearance studies, male Sprague Dawley rats weighing 250-300 grams were used. The animals were anesthetized by peritoneal injection of an aqueous solution of urethan (1 gm/Kg). The right carotid artery and left jugular vein were exposed and an external blood loop (PE-50 tubing; volume.perspectiveto.0.14 ml) was inserted between the vessels. […] The right external jugular vein was then exposed and cannulated as an injection site. The animal was placed in a lead cradle and the blood loop inserted into the shielded well of a sodium iodide.thallium crystal. The animal received an injection of carrier-free gallium citrate (100-120 μCi) via the jugular cannula. […] Six hours post injection, the animal received a second injection containing one of the clearing agents (.perspectiveto.7.2 mmole/Kg). In subsequent experiments, clearing agents were administered two hours after or simultaneously with the radioactive dose."}, "[4]": {"conditions": "relatively large doses; cited from earlier work"}, "[5]": {"test_system": "5123C hepatoma", "test": "Imaging of 67Ga distribution in tumored rats, clearing agent six hours after radiopharmaceutical"}, "[6]": {"test_system": "5123C hepatoma", "test": "Imaging of 67Ga distribution in tumored rats, clearing agent two hours after radiopharmaceutical", "assay_type": "in vivo, male Buffalo rats", "procedure": "FIGS. 3A-3C are scans (Union Carbide Cleon model 720 large field gamma camera) of Buffalo rats bearing implanted 5123C hepatomas.\nAt this point, the rat on the left received carrier gallium citrate (3.3 mg/Kg) and the rat on the right received indium citrate (2.1 mg/Kg).\nInitial studies used non-tumored male Sprague Dawley rats weighing between 250 and 300 grams. Subsequent studies in tumored rats used male Buffalo rats bearing a 5123C hepatoma (The tumor line was initiated from donor animals donated by Drs. R. L. Hayes and B. Byrd of the Oak Ridge Associated Universities). In all imaging studies, the animals were anesthetized by intraperitoneal injection of urethane (1 gm/Kg), and the left external jugular vein cannulated as a dosing site. The animals were then positioned under the detection of the γ-camera (Union Carbide; CLEON 720 Large Field Gamma Camera coupled with a CLEON 110 Image Processor) and images were obtained periodically.\nWhen the clearing agent was given two hours post radiopharmaceutical dosing, there were significant changes in gallium-67 distribution (FIG. 3). […] The results from use of indium citrate were somewhat more dramatic in that the activity is greatly diminished throughout the soft tissue regions. […] The most significant distributional change, however, is the obvious increase in tumor activity. […] To test this hypothesis, indium citrate was given with gallium-67 citrate as a single solution. […] Twenty minutes after the mixed dose is given, there is little activity outside the kidneys, bladder, tumor and bone. After two hours, there is essentially no activity in the animal other than in the above mentioned regions."}, "[7]": {"conditions": "in vivo; cited from earlier work"}, "[8]": {"conditions": "cited from earlier work"}, "[9]": {"conditions": "versus gallium alone; cited from earlier work"}, "[10]": {"conditions": "cited from earlier work", "remark": "listed apart in the source"}, "[11]": {"test": "Blood activity-time curve of carrier-free gallium-67 citrate, no clearing agent", "assay_type": "in vivo, normal Sprague Dawley rat", "conditions": "single i.v.", "from_the_text": "In this study, an external blood-loop technique (Int J of Appl Radiat Isot 29: 189-190, 1978) is used to monitor blood activity of the radiopharmaceutical as a function of time. Relative tissue concentrations are monitored by external imaging.\nFor blood clearance studies, male Sprague Dawley rats weighing 250-300 grams were used. The animals were anesthetized by peritoneal injection of an aqueous solution of urethan (1 gm/Kg). The right carotid artery and left jugular vein were exposed and an external blood loop (PE-50 tubing; volume.perspectiveto.0.14 ml) was inserted between the vessels. Blood was diverted from the artery, through the loop, and back to the animal via the vein (Int J of Appl Radiat Isot 29: 189-190, 1978). The right external jugular vein was then exposed and cannulated as an injection site. The animal was placed in a lead cradle and the blood loop inserted into the shielded well of a sodium iodide.thallium crystal. The animal received an injection of carrier-free gallium citrate (100-120 μCi) via the jugular cannula. Blood activity within the loop was continuously monitored as a function of time using a Packard Model 9012 Multi-channel Analyzer/Multi-scaler system (Packard Instrument Co., Downersville, Ill.). Six hours post injection, the animal received a second injection containing one of the clearing agents (.perspectiveto.7.2 mmole/Kg). […]"}, "[12]": {"test_system": "induced abscesses", "conditions": "rabbits bearing induced abscesses; cited from earlier work"}, "[13]": {"conditions": "clearing agent two hours after radiopharmaceutical"}, "[14]": {"conditions": "clearing agent two hours post radiopharmaceutical, gallium citrate 3 mg/Kg, […] 2.1 mg/Kg"}}, "data": [{"compound": "CC(O)C(=O)[O][Al]([O]C(=O)C(C)O)[O]C(=O)C(C)O", "note": "(centres unmarked) [Aluminum, aluminum lactate]", "values": [{"measurement": "redistribution of radioactivity (imaging)", "setting": "[1]", "result": "no significant redistribution of the radioactivity"}, {"measurement": "% Decrease in Blood Activity", "setting": "[2]", "result": 9, "unit": "%"}, {"measurement": "Net Decrease in blood activity", "setting": "[2]", "result": 6, "unit": "%"}, {"measurement": "% Increase in Blood Activity", "setting": "[2]", "result": 3, "unit": "%"}]}, {"compound": "O=C([O-])CC(O)(CC(=O)[O-])C(=O)[O-].[Ga+3]", "note": "[Gallium, gallium citrate]", "values": [{"measurement": "blood activity cleared", "setting": "[3]; [13]", "result": 78, "unit": "%"}, {"measurement": "subsequent rise in blood activity (in words)", "setting": "[3]; [13]", "result": "characteristic rise in activity"}, {"measurement": "net clearance of blood activity", "setting": "[3]; two hours after radiopharmaceutical, gallium 3.3 mg/Kg", "result": 70, "unit": "%"}, {"measurement": "effect on blood and tumor activity", "setting": "[4]", "result": "decrease blood activity without significantly reducing tumor activity"}, {"measurement": "redistribution of radioactivity (imaging)", "setting": "[1]", "result": "shifted the radioactivity out of the blood/soft tissue regions and into the kidneys and the bladder"}, {"measurement": "% Decrease in Blood Activity", "setting": "[2]", "result": 40, "unit": "%"}, {"measurement": "% Decrease in Blood Activity", "setting": "[2]; listed as non-radioactive gallium", "result": "approximately 40%"}, {"measurement": "Net Decrease in blood activity", "setting": "[2]", "result": 25, "unit": "%"}, {"measurement": "change in blood activity (in words)", "setting": "[2]", "result": "decrease very rapidly"}, {"measurement": "blood activity reduction vs no clearing agent", "setting": "[2]; eight hours post radiopharmaceutical dosing, gallium 3.3 mg/Kg at six hours", "result": "approximately 25%"}, {"measurement": "% Increase in Blood Activity", "setting": "[2]", "result": 15, "unit": "%"}, {"measurement": "redistribution of radioactivity outside tumor (imaging)", "setting": "[5]; gallium citrate 3 mg/Kg", "result": "less dramatic effect"}, {"measurement": "loss of activity from the tumor (imaging)", "setting": "[5]; gallium citrate 3 mg/Kg, compared with high dose", "result": "much less"}, {"measurement": "redistribution of radioactivity outside tumor (imaging)", "setting": "[5]; gallium citrate 15 mg/Kg", "result": "obvious redistributions of radioactivity"}, {"measurement": "tumor activity (imaging)", "setting": "[5]; gallium citrate 15 mg/Kg", "result": "tumor activity was observed to decrease"}, {"measurement": "clearing of soft tissue / abdominal activity (imaging)", "setting": "[6]; [14]", "result": "some clearing in the upper abdomen and in regions of the lower abdomen"}, {"measurement": "tumor activity (imaging)", "setting": "[6]; [14]", "result": "little loss of activity from the tumor region"}, {"measurement": "activity bound within tumors (imaging, summary)", "setting": "[6]; moderate doses of carrier gallium, […] two hours after radiopharmaceutical", "result": "obviously affected"}]}, {"compound": "O=C([O-])CC(O)(CC(=O)[O-])C(=O)[O-].[Sc+3]", "note": "[Scandium citrate]", "values": [{"measurement": "hemolytic anemia", "setting": "[7]", "result": "severe hemolytic anemia"}, {"measurement": "tumor to blood and tumor to tissue ratios", "setting": "[8]; gallium-67 and scandium citrates injected simultaneously", "result": "extremely high tumor to blood and tumor to tissue ratios"}, {"measurement": "effect upon gallium binding in tumors", "setting": "[8]; in vivo", "result": "little or no effect upon gallium binding in tumors"}]}, {"compound": "CC(=O)[O-].CC(=O)[O-].CC(=O)[O-].[Tl+3]", "note": "[Thallium, thallium triacetate]", "values": [{"measurement": "redistribution of radioactivity (imaging)", "setting": "[1]", "result": "no significant redistribution of the radioactivity"}, {"measurement": "% Decrease in Blood Activity", "setting": "[2]", "result": 0, "unit": "%"}, {"measurement": "Net Decrease in blood activity", "setting": "[2]", "result": 0, "unit": "%"}, {"measurement": "change in blood activity (in words)", "setting": "[2]", "result": "no change in blood activity"}, {"measurement": "% Increase in Blood Activity", "setting": "[2]", "result": 0, "unit": "%"}]}, {"compound": "CC(=O)N(O)CCCCCNC(=O)CCC(=O)N(O)CCCCCNC(=O)CCC(=O)N(O)CCCCCN", "note": "[desferoxamine]", "values": [{"measurement": "renal elimination rate of gallium desferoxamine complex", "setting": "[9]", "result": "rate greater than that observed for gallium alone"}]}, {"compound": "O=C([O-])CC(O)(CC(=O)[O-])C(=O)[O-].[67Ga+3]", "note": "[gallium-67 citrate]", "values": [{"measurement": "time of maximum gallium activity in tumors", "setting": "[10]; after intravenous administration", "result": "eighteen"}, {"measurement": "plasma / blood and soft tissue protein binding", "setting": "[10]; given in very low doses", "result": "extensively bound"}, {"measurement": "clearing from blood and soft tissue binding sites", "setting": "[10]; in vivo", "result": "slow process"}, {"measurement": "radiation dose", "setting": "[10]; prolonged retention of 67Ga in the body", "result": "relatively high radiation dose"}, {"measurement": "t1/2 of very rapid component of blood curve", "setting": "[11]", "result": 12, "unit": "s"}, {"measurement": "time to completion of rapid distribution process", "setting": "[11]; after dosing", "result": "four to six"}]}, {"compound": "iron dextran", "values": [{"measurement": "clearing of gallium and abscess uptake", "setting": "[12]", "result": "clearing of gallium with enhanced abscess uptake of gallium"}]}]}
